Measured values: US20090163586A1, “Bis-(Sulfonylamino) Derivatives in Therapy 205” (AstraZeneca AB, priority 2007, published 2009)

What follows are molecules tested against T1, human mPGES-1 (Homo sapiens, UniProt O14684) (assay: Microsomal prostaglandin E synthase biochemical assay). Conditions: microsome preparation containing human mPGES-1; PGH2 10.8 μM, GSH 2.5 mM, pH 6.8; PGE2 by HTRF; average of at least n=2.
T1 sequence (O14684 1-152): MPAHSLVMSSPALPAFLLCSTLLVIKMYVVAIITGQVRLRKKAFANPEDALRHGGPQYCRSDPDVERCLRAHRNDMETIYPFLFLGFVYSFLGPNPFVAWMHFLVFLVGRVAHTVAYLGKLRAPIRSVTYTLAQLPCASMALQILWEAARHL
Outline: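 Human mPGES-1 microsomes at 2 μg/mL were pre-incubated 15 min with compound (60 μM to 0.002 μM) in 50 mM potassium phosphate pH 6.8 with 2.5 mM GSH. The reaction was started with 10.8 μM PGH2 and stopped after 1 minute with acidic ferric chloride/citrate. PGE2 was quantified by HTRF; IC50 is the mean of at least 2 runs.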

IC50 | SMILES
0.62 µM | NS(=O)(=O)c1cnccc1NS(=O)(=O)CCc1ccc(-c2cc3ccccc3o2)cc1 [Example 204, 4-(2-(4-(Benzofuran-2-yl)phenyl)ethylsulfonamido)pyridine-3-sulfonamide]
0.56 µM | COc1cc(Cl)ccc1CCS(=O)(=O)Nc1ccc(C)cc1S(N)(=O)=O [Example 205, 2-(2-(4-Chloro-2-methoxyphenyl)ethylsulfonamido)-5-methylbenzenesulfonamide]
9.1 µM | COc1cc(Cl)ccc1CCS(=O)(=O)Nc1ccncc1S(N)(=O)=O [Example 206, 4-(2-(4-Chloro-2-methoxyphenyl)ethylsulfonamido)pyridine-3-sulfonamide]
0.097 µM | NS(=O)(=O)c1ccccc1NS(=O)(=O)/C=C/c1ccc(C2=CCCC2)cc1 [Example 207, (E)-2-(2-(4-Cyclopentenylphenyl)vinylsulfonamido)benzenesulfonamide]
0.055 µM | CC(C)(C)C#Cc1ccc(/C=C/S(=O)(=O)Nc2ccccc2S(N)(=O)=O)cc1 [Example 208, (E)-2-(2-(4-(3,3-Dimethylbut-1-ynyl)phenyl)vinylsulfonamido)benzenesulfonamide]
0.22 µM | CC(C)(O)C#Cc1ccc(/C=C/S(=O)(=O)Nc2ccccc2S(N)(=O)=O)cc1 [Example 209, (E)-2-(2-(4-(3-Hydroxy-3-methylbut-1-ynyl)phenyl)vinylsulfonamido)benzenesulfonamide]
0.36 µM | Cc1ccc(NS(=O)(=O)CCc2ccc(C#CC(C)(C)C)cc2)c(S(N)(=O)=O)c1 [Example 210, 2-{2-[4-(3,3-Dimethyl-but-1-ynyl)-phenyl]-ethanesulfonylamino}-5-methyl-benzenesulfonamide]
0.075 µM | CC(C)(C)C#Cc1ccc(CCS(=O)(=O)Nc2ccc(CO)cc2S(N)(=O)=O)cc1 [Example 211, 2-{2-[4-(3,3-Dimethyl-but-1-ynyl)-phenyl]-ethanesulfonylamino}-5-hydroxymethyl-benzenesulfonamide]
0.041 µM | NS(=O)(=O)c1cc(CO)ccc1NS(=O)(=O)CCc1ccc(C#CC2CCCC2)cc1 [Example 212, 2-[2-(4-Cyclopentylethynyl-phenyl)-ethanesulfonylamino]-5-hydroxymethyl-benzenesulfonamide]
0.33 µM | COc1cc(Cl)ccc1CCS(=O)(=O)Nc1ccc(CO)cc1S(N)(=O)=O [Example 213, 2-[2-(4-Chloro-2-methoxy-phenyl)-ethanesulfonylamino]-5-hydroxymethyl-benzenesulfonamide]
1.4 µM | CC(C)(C)C#Cc1ccc(CCS(=O)(=O)Nc2ccsc2S(N)(=O)=O)cc1 [Example 214, 3-{2-[4-(3,3-Dimethyl-but-1-ynyl)-phenyl]-ethanesulfonylamino}-thiophene-2-sulfonic acid amide]
0.74 µM | COc1ncc(-c2cccc(S(=O)(=O)Nc3ccsc3S(N)(=O)=O)c2)cc1Cl [Example 215, 3-[3-(5-Chloro-6-methoxy-pyridin-3-yl)-benzenesulfonylamino]-thiophene-2-sulfonic acid amide]
0.13 µM | NS(=O)(=O)c1ccccc1NS(=O)(=O)/C=C/c1ccc(OC(F)(F)C(F)F)cc1 [Example 216, (E)-2-(2-(4-(1,1,2,2-tetrafluoroethoxy)phenyl)vinylsulfonamido)benzenesulfonamide]
0.11 µM | NS(=O)(=O)c1ccccc1NS(=O)(=O)/C=C/c1ccccc1OC(F)F [Example 217, (E)-2-(2-(2-(difluoromethoxy)phenyl)vinylsulfonamido)benzenesulfonamide]
0.18 µM | NS(=O)(=O)c1ccccc1NS(=O)(=O)/C=C/c1ccc(-c2ccc(C(F)(F)F)cc2)cc1 [Example 218, (E)-2-(2-(4′-(trifluoromethyl)biphenyl-4-yl)vinylsulfonamido)benzenesulfonamide]
0.95 µM | CC(C)Oc1ccccc1/C=C/S(=O)(=O)Nc1ccccc1S(N)(=O)=O [Example 219, (E)-2-(2-(2-isopropoxyphenyl)vinylsulfonamido)benzenesulfonamide]

IC50 | SMILES
0.27 µM | CSc1ccccc1/C=C/S(=O)(=O)Nc1ccccc1S(N)(=O)=O [Example 220, (E)-2-(2-(2-(methylthio)phenyl)vinylsulfonamido)benzenesulfonamide]
0.42 µM | NS(=O)(=O)c1ccccc1NS(=O)(=O)/C=C/c1ccccc1OC(F)(F)F [Example 221, (E)-2-(2-(2-(trifluoromethoxy)phenyl)vinylsulfonamido)benzenesulfonamide]
0.38 µM | CCOc1ccccc1/C=C/S(=O)(=O)Nc1ccccc1S(N)(=O)=O [Example 222, 2-[2-(2-ethoxy-phenyl)-ethenesulfonylamino]-benzenesulfonamide]
0.42 µM | NS(=O)(=O)c1ccccc1NS(=O)(=O)CCc1ccc(OC(F)(F)C(F)F)cc1 [Example 223, 2-(2-(4-(1,1,2,2-tetrafluoroethoxy)phenyl)ethylsulfonamido)benzenesulfonamide]
0.1 µM | NS(=O)(=O)c1ccccc1NS(=O)(=O)CCc1ccc(-c2ccc(C(F)(F)F)cc2)cc1 [Example 224, 2-(2-(4′-(trifluoromethyl)biphenyl-4-yl)ethylsulfonamido)benzenesulfonamide]
6.3 µM | NS(=O)(=O)c1ccccc1NS(=O)(=O)/C=C/c1ccccc1O [Example 225, 2-[2-(2-Hydroxy-phenyl)-ethenesulfonylamino]-benzenesulfonamide]
1.3 µM | NS(=O)(=O)c1ccc(Cl)cc1NS(=O)(=O)CCc1ccc(OC(F)F)cc1 [Example 226, 4-Chloro-2-(2-(4-(difluoromethoxy)phenyl)ethylsulfonamido)benzenesulfonamide]
1.9 µM | COc1ccccc1CCS(=O)(=O)Nc1cc(Cl)ccc1S(N)(=O)=O [Example 227, 4-Chloro-2-(2-(2-methoxyphenyl)ethylsulfonamido)benzenesulfonamide]
0.13 µM | COc1cc(Cl)ccc1CCS(=O)(=O)Nc1cc(Cl)ccc1S(N)(=O)=O [Example 228, 4-Chloro-2-(2-(4-chloro-2-methoxyphenyl)ethylsulfonamido)benzenesulfonamide]
5.5 µM | NS(=O)(=O)c1cc(F)cc(F)c1NS(=O)(=O)CCc1ccc(Cl)c(Cl)c1 [Example 229, 2-(2-(3,4-Dichlorophenyl)ethylsulfonamido)-3,5-difluorobenzenesulfonamide]
6.1 µM | COc1cc(NS(=O)(=O)c2cccc(Cl)c2Cl)c(S(N)(=O)=O)cc1F [Example 230, 2,3-Dichloro-N-(4-fluoro-5-methoxy-2-sulfamoylphenyl)benzenesulfonamide]
0.13 µM | NS(=O)(=O)c1ccc(Cl)cc1NS(=O)(=O)CCc1ccc(Cl)c(Cl)c1 [Example 231, 4-Chloro-2-(2-(3,4-dichlorophenyl)ethylsulfonamido)benzenesulfonamid]
0.87 µM | NS(=O)(=O)c1cc(Cl)c(F)cc1NS(=O)(=O)CCc1ccc(Cl)cc1 [Example 232, 5-Chloro-2-(2-(4-chlorophenyl)ethylsulfonamido)-4-fluorobenzenesulfonamide]
0.15 µM | NS(=O)(=O)c1cc(Cl)c(F)cc1NS(=O)(=O)CCc1ccc(Cl)c(Cl)c1 [Example 233, 5-Chloro-2-(2-(3,4-dichlorophenyl)ethylsulfonamido)-4-fluorobenzenesulfonamide]
6.2 µM | NS(=O)(=O)c1c(NS(=O)(=O)CCc2ccc(-c3ccco3)cc2)ccc2c1CCC2 [Example 234, 5-(2-(4-(Furan-2-yl)phenyl)ethylsulfonamido)-2,3-dihydro-1H-indene-4-sulfonamide]
